Substitutions are numbered along the chain they refer to. In names and notes the source's numbering stands.
Experiments:
[1] = system: bone marrow-derived macrophages (BMDM); assay: IL-1β cytokine release ELISA; type: cell-based; conditions: short-term LPS stimulation (5 minutes), mouse BMDM
Protocol: Cytokine Release. LPS-stimulated, IL-1β cytokine release from bone-marrow monocyte-derived macrophages ([…] mice) was measured using the QUANTIKINE® ELISA kit (R&D Systems). Cells were seeded in 96-well plates and pre-treated for 10 minutes with medium, 10 μM U73122, or 10 μM wortmannin. LPS (100 ng/μL, Invivogen) was then added to the cells for 5 minutes and the cell-free supernatants were recovered and subjected to the ELISA kit according to the manufacturer's instructions. The concentration of the samples in 96-well plates was measured via absorbance at 450 nm using an Epoch Microplate Spectrophotometer (Biotek Instruments). The OD values in six technical repeats each from a total of three mice (n=18) were converted into the […] levels reported via a power law fit of a serial dilution calibration curve.

Hela cells [2] = assay: PhoDer activation after pretreatment with PI3K/PLC modulators, calcium flare dynamics; type: cell-based
Protocol: (§1) Cell Culture. HeLa and RAW264.7 cells were maintained in Dulbecco's Modified Eagle Medium (DMEM) medium supplemented with 10% fetal bovine serum (FBS) and 1% penicillin and streptomycin. Cells were transfected at 50%-70% confluency using LIPOFECTAMINE® 2000 transfection reagent and incubated for 24 hours before imaging. Cells were never serum-starved. To examine endogenous inflammatory activation, RAW264.7 cells were treated with 100 ng/μL lipopolysaccharide (LPS, Invivogen) at the beginning of each experiment. Pretreatment to bias membrane composition by phosphatidylinositol 4,5-bisphosphate (PIP2) modifying enzymes was performed by incubating Hela cells in Hanks' Balanced Salt Solution (HBSS) buffer with inhibitors at 37° C. for 10 minutes to prior imaging at the following concentrations: for phosphoinositide 3-kinase (PI3K), cells were treated 10 μM wortmannin (Tocris); and for phospholipase C (PLC), cells were treated with 10 μM U73122 (Tocris). Cells were removed from the incubator and allowed to come to thermal equilibrium before being imaged in HBSS buffer at room temperature.
(§2) Fluorescence Imaging, Optogenetic Activation, and Post-Processing. All epifluorescence imaging was performed on a customized Nikon Ti2-E microscope equipped with individual control over excitation (EX) and emission (EM) filters, a fast LED light source (Lumencor) with fluid-cooled EMCCD (Andor), motorized stage, and examined under a 40× or 100× oil immersion objective under live focus tracking. For RFP, excitation (EX) and emission (EM) filter combinations (maxima/bandwidth in nm) are indicated. Cells were imaged at 12-15 second intervals. Emission intensities of individual cells were background-subtracted before normalization to zero time point, when optogenetic activation began. In the optical setup, optogenetic activation of PhoDer was performed using an EX filter at 440/20 nm for 20-30 ms across whole fields of view. This replicated the progression of endogenous activation of GSDMD observed in LPS-stimulated RAW264.7 cells. […] Where applicable, inhibitors were treated at the indicated concentration for 15 minutes prior to imaging.
Fluctuation Analysis and Quantification. To automate the objective isolation and quantitation of calcium flares, a post-processing algorithm was developed based on principles and normalization scheme detailed in work on photochromic stochastic optical fluctuation imaging (pcSOFI) (Dedecker et al. (2012) Proc. Natl. Acad. Sci. USA 109: 10909-10914). Briefly, fluctuation caused by the flares generate high autocorrelation signals in time-averaged series and yield high contrast at locales of the greatest ion flux. To truly reflect the local flux change, it is then normalized to remove dependence on the number of biosensors reporting at the given location using a scheme detailed previously (Mo et al. (2017) Nat. Methods 14 (4): 427-434). Using Matlab, rolling-window mean and rolling-window autocorrelation values were calculated for each pixel over each entire fluorescence time course that contained possible flares. A heuristic approach to window size was taken and a range of window sizes were examined using examples where calcium flares were visually distinct prior to setting the window size for all analyses. All such fluctuation images were then verified manually against intensity time course to ensure bone fide flare detection; particularly strong and non-overlapping flares were chosen and added to calculate kinetic parameters. […]

full length human GSDMD = system: T1, full length human GSDMD
T1 sequence: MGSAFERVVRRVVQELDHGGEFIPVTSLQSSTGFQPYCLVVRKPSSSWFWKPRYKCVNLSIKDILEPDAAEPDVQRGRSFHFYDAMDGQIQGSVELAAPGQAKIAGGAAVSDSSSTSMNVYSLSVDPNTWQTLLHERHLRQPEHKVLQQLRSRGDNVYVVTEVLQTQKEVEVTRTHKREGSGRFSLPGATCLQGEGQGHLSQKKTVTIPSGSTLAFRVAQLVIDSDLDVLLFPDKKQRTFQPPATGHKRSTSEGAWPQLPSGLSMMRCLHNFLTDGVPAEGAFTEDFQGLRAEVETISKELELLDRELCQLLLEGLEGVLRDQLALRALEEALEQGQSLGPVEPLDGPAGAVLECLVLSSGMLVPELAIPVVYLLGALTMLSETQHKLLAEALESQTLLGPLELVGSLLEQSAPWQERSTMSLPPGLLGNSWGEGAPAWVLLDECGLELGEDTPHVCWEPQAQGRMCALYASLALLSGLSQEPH

Hela cells [3] = assay: Optogenetic activation of PhoDer, membrane-targeted jRCaMP1b calcium flare imaging and fluctuation analysis; type: cell-based; conditions: charge-altering mutations
Protocol: Cloning. Cloning and subcloning were performed using the DH5a strain of E. coli. All mammalian constructs were cloned into the pcDNA3.0 vector with a modified multiple cloning site. Plasmids were generated as follows. Gasdermin D gene was obtained from Addgene. A diffusible optogenetic GSDMD, referred to herein as “PhoDer” and set forth in SEQ ID NO: 33, was constructed according to the reported domains structure by ligating three fragments into the pcDNA3.0 vector in one reaction via Gibson Assembly (New England BioLabs). For each fragment, PCR was specifically designed to create appropriate complementation. The jRCaMP1b gene, encoding a sensitive red protein calcium indicator, was obtained from Addgene. Membrane targeted calcium indicator jRCaMP1b was constructed by ligating a PCR fragment of the calcium indicator into the restriction enzyme sites BamHI and EcoRI in a modified pcDNA3.0 vector carrying a 5′ fragment encoding the N-terminal Lyn kinase localization sequence.
as §1, §2
Fluctuation Analysis and Quantification. To automate the objective isolation and quantitation of calcium flares, a post-processing algorithm was developed based on principles and normalization scheme detailed in work on photochromic stochastic optical fluctuation imaging (pcSOFI) (Dedecker et al. (2012) Proc. Natl. Acad. Sci. USA 109: 10909-10914). Briefly, fluctuation caused by the flares generate high autocorrelation signals in time-averaged series and yield high contrast at locales of the greatest ion flux. To truly reflect the local flux change, it is then normalized to remove dependence on the number of biosensors reporting at the given location using a scheme detailed previously (Mo et al. (2017) Nat. Methods 14 (4): 427-434). […]

Hela cells [4] = assay: Reversible optogenetics, cyclic activation; type: cell-based
Protocol: Reversible Optogenetics. HeLa cells expressing a modified gasdermin protein of the invention (SEQ ID NO: 40) were subjected to cyclic activation. Whereas gasdermin lacking a photoactivatable linker has no ability to reverse and will kill the cell typically in 30 minutes or less, activation of reversible optogenetic gasdermin allow cells to stay alive for 2 hours or longer. Furthermore, upon closer examination, the cyclic activation pattern can clearly be detected in the response of these cells via autocorrelation function (FIG. 13). The “imprinting” of this cyclic pattern into the cellular response can only be possible if the optogenetic gasdermin protein is reversible.

740 Y-P was tested, and the IL-1β release [1] was “failed to elicit meaningful differences” and the “calcium flare occurrence / calcium response with PI3K/PLC activators” value (Hela cells [2]) was “failed to elicit meaningful differences”.

caspase-1 was tested, and the “micro-current recordings in a POPE/POPC planar lipid bilayer” value (full length human GSDMD) was “upon the addition of activated GSDMD (mixture with caspase-1 to cleave the C-terminal autoinhibition domain), minute current fluctuations were detected”.

`COC[C@H]1OC(=O)c2coc3c2[C@@]1(C)C1=C(C3=O)[C@@H]2CCC(=O)[C@@]2(C)C[C@H]1OC(C)=O` [wortmannin] was tested, and the “spatial extent flares reached” value (Hela cells [2]; pretreatment 10 μM, n=27) was 12 μm.

With `COc1ccc2c(c1)CC[C@@H]1[C@@H]2CC[C@]2(C)[C@@H](NCCCCCCN3C(=O)C=CC3=O)CC[C@@H]12` [U73122] the IL-1β release [1] was “enhanced”, the “pixel-wise calcium fluctuations, local pore activity per locale” value (Hela cells [2]; pretreated vs non-pretreated cells) was “highest activity per locale” and the “intracellular calcium progression after PhoDer activation” value (Hela cells [2]; pretreatment 10 μM) was “steep, cumulative rise in intracellular calcium”.

In the case of `Cc1cc(C)c(S(=O)(=O)Nc2cccc(C(F)(F)F)c2)c(C)c1` [m-3m3FBS], the IL-1β release [1] is reported as “did not limit LPS-stimulated IL-1β release” and the “calcium flare occurrence / calcium response with PI3K/PLC activators” value (Hela cells [2]) is reported as “inhibited flare occurrence for a short time”.

B1: R151E/R153E: mutant at another helical region of GSDMD N-terminal domain (protein, UniProt P57764 1-484, looked up, variant R151E R153E)
Gasdermin-D: T1 sequence with R151E, R153E
In the case of B1, the “calcium response of mutants at other putative lipid-binding sites” value (Hela cells [3]) is reported as “either encumbering or abrogating the calcium response”.

B2: SEQ ID NO: 40: reversible optogenetic gasdermin variant, modified gasdermin protein of the invention (protein)
chain: MGSAFERVVRRVVQELDHGGEFIPVTSLQSSTGFQPYCLVVRKPSSSWFWKPRYKCVNLSIKDILEPDAAEPDVQRGRSFHFYDAMDGQIQGSVELAAPGQAKIAGGAAVSDSSSTSMNVYSLSVDPNTWQTLLHERHLRQPEHKVLQQLRSRGDNVYVVTEVLQTQKEVEVTRTHKREGSGRFSLPGATCLQGEGQGHLSQKKTVTIPSGSTLAFRVAQLVIDSDLDVLLFPDKKQRTFQPPATGHKRSTSEGAWPQLPSGLSMMRCLHNGGGGMLATTLERIEKNFVITDPRLPDNPIIFASDSFLQLTEYSREEILGRNCRFLQGPETDRATVRKIRDAIDNQTEVTVQLINYTKSGKKFWNVFHLQPMRDYKGDVQYFIGVQLDGTERLHGAAEREAVCLIKKTAFQIAEAANDENYFGGGGVPAEGAFTEDFQGLRAEVETISKELELLDRELCQLLLEGLEGVLRDQLALRALEEALEQGQSLGPVEPLDGPAGAVLECLVLSSGMLVPELAIPVVYLLGALTMLSETQHKLLAEALESQTLLGPLELVGSLLEQSAPWQERSTMSLPPGLLGNSWGEGAPAWVLLDECGLELGEDTPHVCWEPQAQGRMCALYASLALLSGLSQEPH
B2 was tested, and the “time cells stay alive under activation” value (Hela cells [4]; HeLa cells, cyclic activation) was at least 2 h and the “reversibility (autocorrelation function of cyclic activation)” value (Hela cells [4]; activations every 20 cycles) was “achieved”.

Source: US20240262878A1, “PHOTOACTIVATABLE GASDERMIN PROTEINS” (THE BOARD OF TRUSTEES OF THE UNIVERSITY OF ILLINOIS, priority 2021, published 2024)
